Square brackets hold non-standard residues; d marks the D form. Peptide text beside a SMILES is read from it. * marks the point of attachment. X1 = CN1/C(=C/C=C/C=C/C2=[N+](CCCCCC(=O)*)c3ccc(S(=O)(=O)[O-])cc3C2(C)C)C(C)(C)c2cc(S(=O)(=O)O)ccc21; Hyp = O=C(O)[C@@H]1C[C@@H](O)CN1; Nlys = NCCCCNCC(=O)O; Ahx = NCCCCCC(=O)O
Columns and labels:
cartilage = assay: In vivo and ex vivo fluorescence imaging of cartilage uptake and retention in nude mice; design: species or system mouse; settings: 1 nmol i.v., 0-96 h
Source text: All procedures for mouse maintenance and experiments strictly followed the policy of the Experimental Animal Ethics Committee of the Fifth Affiliated Hospital of Sun Yat‐sen University (protocol numbers: 00361, 00436). Balb/c nu mice (male, 10‐18 weeks old) were used for the general in vivo imaging experiments (Figure 3c–f; Figures S10–S14, Supporting Information). For Figure 3g,h and Figure S16 (Supporting Information), neonatal Balb/c mice (7 days old) were used. Female Balb/c mice (74 weeks old versus 12 weeks old) were used in the aged joint imaging experiment reported in Figure 4a–c and Figure S17 (Supporting Information). The RA model was made using female Balb/c mice (6‐8 weeks old) by intraperitoneal injection of an anti‐collagen antibody cocktail (1.5 mg per mouse; Chondrex, 53100) followed by selective subcutaneous injection of lipopolysaccharide (LPS, 12.5 µg per mouse, Chondrex, 53100) into the left hind paw three days later.^[ [30] ^] C57BL/6J mice (male, 6–8 weeks old) were used for the biocompatibility tests (Figures S23–S25, Supporting Information).
(§1) Typically, the fluorescence peptides or peptoids were prepared at a dose of 1 nmol (10 µM in 100 µL of 1× PBS buffer) and injected into the tail vein of each mouse 2 h prior to fluorescence imaging with an IVIS Spectrum imager (PerkinElmer Lumina III). For Figure 4, Figures S17 and S18 (Supporting Information) (joint aging and RA) and Figure S27 (Supporting Information), 2 nmol of Cy5‐(NlysO)7 (20 µM in 100 µL of 1× PBS buffer) were i.v. administered to each mouse. For 1‐week‐old neonatal mice, 1 nmol of Cy5‐(NlysO)7 (20 µM in 50 µL of 1× PBS buffer) was intravenously injected into each mouse. All in vivo imaging was performed 2 h post probe injection with the IVIS Spectrum imager (PerkinElmer, fluorescence: ex/em: 620/670 nm, exposure: 1 s, bing: 4, F/Stop: 2; field of view: A/B/C/Z). Mice were anesthesia with 3% isoflurane (RWD, R510‐22‐10) during image acquisition. Hair in the knee areas was removed before fluorescence imaging for mice in Figure 4a and Figure S17 (Supporting Information). The mice were euthanized following the final image acquisition and occasionally imaged again after skin and organ removal. Next, the airways, ankles, ears, paws, knees, tails, spines, and chest ribs were collected, imaged, and saved for subsequent histology analysis. All acquired fluorescence images were analyzed using the Living Image software (PerkinElmer). The fluorescence signal from each specimen was measured by quantifying the average radiation efficiency within the selected oval‐shaped regions‐of‐interest.
For the cartilage retention experiments (Figures S11 and S12, Supporting Information), Cy5‐(NlysO)7 (10 µM in 100 µL of 1× PBS buffer) was administered via tail vein to four male Balb/c nu mice (10 weeks old) at 2, 24, 48, and 96 h respectively, prior to fluorescence imaging using an IVIS Spectrum imaging system (ex/em: 620/670 nm, exposure: 1 s, bing: 4, F/Stop: 2). Following euthanasia, their cartilaginous tissues were harvested and imaged. The fluorescence images were analyzed and quantified as described above.

[1] = Serum stability test (HPLC); format: in vitro ADME, mouse; settings: 37 °C; for HPLC peak shape and elution time after 24 h of serum incubation: mouse serum; for HPLC peak shape and elution time after 24 h of serum incubation / HPLC chromatogram after 48 h of serum incubation: HPLC 646 nm; for degradation in serum (in words): 25% v/v mouse serum, 24 h and even after 48 h; for degradation in serum (in words) / metabolised at 24 h: HPLC UV 646 nm; for degradation in serum (in words) / HPLC chromatogram after 48 h of serum incubation / metabolised at 24 h: n = 3; for HPLC chromatogram after 48 h of serum incubation: 25% mouse serum, 48 h vs 10 min; for metabolised at 24 h: 25% v/v mouse serum in 1× PBS, 10 nmol probe, peak area normalized to 10 min, read-out: percent of the peptides proteolyzed after 24 h of serum incubation
Protocol: Cy5‐labeled peptidomimetic probes (10 nmol) were incubated in 25% v/v mouse serum (Biosharp, BL1053A diluted in 1× PBS) at 37 °C. Aliquots (200 µL) were taken periodically at 0 (deadtime: ≈10 min), 2, 24, and 48 h, and added to 400 µL of 3.75% trichloroacetic acid in acetonitrile at 4 °C. Then, all samples were centrifuged to remove the precipitated serum proteins at 13800 g for 10 min at 4 °C. The supernatant (150 µL) was taken to mix with 550 µL of water (with 0.1% TFA) to centrifuge again at 2630 g for 5 min at 4 °C. Five microliter of the supernatant was mixed with 200 µL of water containing 0.1% TFA as the final samples for HPLC analysis at room temperature monitored by absorbance at 646 nm with the integral area of the intact fraction recorded. The peak area for the 10 min time point was designated as 100% intact, and each peak area at successive time points was normalized to the 10 min peak to calculate the percent compound remaining. All the experiments were repeated three times.

[2] = Routine (whole) blood tests after repeated dosing; format: in vivo, mouse; settings: C57BL/6J mice, 3 weekly i.v. doses of 2 nmol over 14 days, n = 5
Protocol: Whole blood tests: Each C57BL/6J mouse (6–8 weeks old) was intravenously injected with 100 µL of PBS buffer or with each peptide or peptoid probe (2 nmol in 100 µL 1× PBS buffer per mouse) on days 0, 7, and 14. The mice were sacrificed on day 15, 24 h after the final injection. The heart, liver, spleen, lungs, and kidneys were collected from each mouse and processed into formalin‐fixed paraffin‐embedded sections for histological evaluation with H&E staining. Whole blood was collected. Both H&E and blood sample analyses were performed by Wuhan Servicebio.

[3] = Organ fluorescence 2 h post-injection (clearance route); format: in vivo, mouse; settings: nude mice, organs isolated 2 h post i.v. injection of 1 nmol
Protocol: as §1

[4] = 25% v/v mouse serum (Biosharp, BL1053A diluted in 1× PBS); settings: 37 °C, up to 48 h

routine blood analyses vs PBS control group [2]	clearance route from organ fluorescence [3]	Compound	in vivo retention in joints and ribs compared to peptide sequences Cy5-(GKO)7 and Cy5-R8 (cartilage)	HPLC peak shape and elution time after 24 h of serum incubation [1]	serum stability (degradation in mouse serum) [4]	other results
None of the measurements	may be cleared by the ki dneys and liver	CN1/C(=C/C=C/C=C/C2=[N+](CCCCCC(=O)NCCCCCC(=O)N(CCCCN)CC(=O)N(CCCCN)CC(=O)N(CCCCN)CC(=O)N(CCCCN)CC(=O)N(CCCCN)CC(=O)N(CCCCN)CC(=O)N(CCCCN)CC(N)=O)c3ccc(S(=O)(=O)[O-])cc3C2(C)C)C(C)(C)c2cc(S(=O)(=O)O)ccc21 [Cy5‐Nlys7] ({X1-Ahx}-[Nlys][Nlys][Nlys][Nlys][Nlys][Nlys][Nlys]-NH2)	stronger retention in the joints and ribs in vivo	No significant changes in peak shape and elusion time were noted	–	–
–	–	Cy5‐(GNlys)7	–	–	hardly degraded in the serum even after 48 h	–
–	–	Cy5‐(GNlysO)7	–	–	hardly degraded in the serum even after 48 h	–
–	–	Cy5‐(NlysO)7	–	–	hardly degraded in the serum even after 48 h	–
None of the measurements	might be mainly cleared through kidneys	CN1/C(=C/C=C/C=C/C2=[N+](CCCCCC(=O)NCCCCCC(=O)NCC(=O)N(CCCCN)CC(=O)N3C[C@H](O)C[C@H]3C(=O)NCC(=O)N(CCCCN)CC(=O)N3C[C@H](O)C[C@H]3C(=O)NCC(=O)N(CCCCN)CC(=O)N3C[C@H](O)C[C@H]3C(=O)NCC(=O)N(CCCCN)CC(=O)N3C[C@H](O)C[C@H]3C(=O)NCC(=O)N(CCCCN)CC(=O)N3C[C@H](O)C[C@H]3C(=O)NCC(=O)N(CCCCN)CC(=O)N3C[C@H](O)C[C@H]3C(=O)NCC(=O)N(CCCCN)CC(=O)N3C[C@H](O)C[C@H]3C(N)=O)c3ccc(S(=O)(=O)[O-])cc3C2(C)C)C(C)(C)c2cc(S(=O)(=O)O)ccc21 [Cy5‐(GNlysO)7] ({X1-Ahx}-G[Nlys][Hyp]G[Nlys][Hyp]G[Nlys][Hyp]G[Nlys][Hyp]G[Nlys][Hyp]G[Nlys][Hyp]G[Nlys][Hyp]-NH2)	stronger retention in the joints and ribs in vivo	No significant changes in peak shape and elusion time were noted	–	degradation in serum (in words) [1]: hardly degraded
–	–	Cy5‐Nlys7	–	–	No significant changes in peak shape and elution time even post 48 h	–
–	–	CN1/C(=C/C=C/C=C/C2=[N+](CCCCCC(=O)NCCCCCC(=O)NCC(=O)N3C[C@H](O)C[C@H]3C(=O)NCC(=O)N3C[C@H](O)C[C@H]3C(=O)NCC(=O)N3C[C@H](O)C[C@H]3C(=O)NCC(=O)N3C[C@H](O)C[C@H]3C(=O)NCC(=O)N3C[C@H](O)C[C@H]3C(=O)NCC(=O)N3C[C@H](O)C[C@H]3C(=O)NCC(=O)N3C[C@H](O)C[C@H]3C(N)=O)c3ccc(S(=O)(=O)[O-])cc3C2(C)C)C(C)(C)c2cc(S(=O)(=O)O)ccc21 [Cy5‐(GO)7] ({X1-Ahx}-G[Hyp]G[Hyp]G[Hyp]G[Hyp]G[Hyp]G[Hyp]G[Hyp]-NH2)	–	–	–	HPLC chromatogram after 48 h of serum incubation [1]: showed prominent peaks from peptide proteolysis; metabolised at 24 h [1]: ~25%
None of the measurements	may be cleared by the ki dneys and liver	CN1/C(=C/C=C/C=C/C2=[N+](CCCCCC(=O)NCCCCCC(=O)NCC(=O)N(CCCCN)CC(=O)NCC(=O)N(CCCCN)CC(=O)NCC(=O)N(CCCCN)CC(=O)NCC(=O)N(CCCCN)CC(=O)NCC(=O)N(CCCCN)CC(=O)NCC(=O)N(CCCCN)CC(=O)NCC(=O)N(CCCCN)CC(N)=O)c3ccc(S(=O)(=O)[O-])cc3C2(C)C)C(C)(C)c2cc(S(=O)(=O)O)ccc21 [Cy5‐(GNlys)7] ({X1-Ahx}-G[Nlys]G[Nlys]G[Nlys]G[Nlys]G[Nlys]G[Nlys]G[Nlys]-NH2)	stronger retention in the joints and ribs in vivo	No significant changes in peak shape and elusion time were noted	–	degradation in serum (in words) [1]: hardly degraded
–	might be mainly cleared through kidneys	CN1/C(=C/C=C/C=C/C2=[N+](CCCCCC(=O)NCCCCCC(=O)NCC(=O)N[C@@H](CCCCN)C(=O)N3C[C@H](O)C[C@H]3C(=O)NCC(=O)N[C@@H](CCCCN)C(=O)N3C[C@H](O)C[C@H]3C(=O)NCC(=O)N[C@@H](CCCCN)C(=O)N3C[C@H](O)C[C@H]3C(=O)NCC(=O)N[C@@H](CCCCN)C(=O)N3C[C@H](O)C[C@H]3C(=O)NCC(=O)N[C@@H](CCCCN)C(=O)N3C[C@H](O)C[C@H]3C(=O)NCC(=O)N[C@@H](CCCCN)C(=O)N3C[C@H](O)C[C@H]3C(=O)NCC(=O)N[C@@H](CCCCN)C(=O)N3C[C@H](O)C[C@H]3C(N)=O)c3ccc(S(=O)(=O)[O-])cc3C2(C)C)C(C)(C)c2cc(S(=O)(=O)O)ccc21 [Cy5‐(GKO)7] ({X1-Ahx}-GK[Hyp]GK[Hyp]GK[Hyp]GK[Hyp]GK[Hyp]GK[Hyp]GK[Hyp]-NH2)	–	–	–	HPLC chromatogram after 48 h of serum incubation [1]: showed prominent peaks from peptide proteolysis; metabolised at 24 h [1]: ~25%

Reference: paper PMC12631873 (Advanced Science, 2025)
